PubChem BioAssay (NCI)
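Cells were grown in 96-well plates and exposed to each compound for 48 hours at five concentrations; endpoints were interpolated linearly between bracketing concentrations, or set to the highest concentration if not reached. TGI: concentration producing complete growth inhibition.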

Experiments:
Experiment in all cases: NCI anticancer screen, dose series, 48 h
[1] = system: HL-60(TB) leukemia
[2] = system: SK-MEL-2 melanoma
[3] = system: NCI-H522 lung
[4] = system: HS 578T breast
[5] = system: DU-145 prostate
[6] = system: OVCAR-8 ovarian
[7] = system: MALME-3M melanoma
[8] = system: NCI/ADR-RES ovarian
[9] = system: A498 renal
[10] = system: OVCAR-3 ovarian
[11] = system: SK-MEL-5 melanoma
[12] = system: MDA-MB-435
[13] = system: MDA-MB-231 breast
[14] = system: U251 CNS
[15] = system: A549 NSCLC
[16] = system: HOP-92 NSCLC
[17] = system: COLO 205 colon
[18] = system: SR leukemia
[19] = system: OVCAR-4 ovarian
[20] = system: HCT-116 colon
[21] = system: HOP-62 NSCLC
[22] = system: NCI-H23 lung
[23] = system: LOX IMVI melanoma
[24] = system: ACHN renal
[25] = system: SN12C renal
[26] = system: RXF 393 renal
[27] = system: OVCAR-5 ovarian
[28] = system: SNB-75 CNS
[29] = system: CCRF-CEM leukemia
[30] = system: BT-549 breast
[31] = system: SW-620 colon
[32] = system: SF-539 CNS
[33] = system: MDA-N
[34] = system: UACC-62 melanoma
[35] = system: SK-MEL-28 melanoma
[36] = system: UO-31 renal
[37] = system: HT29 colon
[38] = system: SK-OV-3 ovarian
[39] = system: CAKI-1 renal
[40] = system: SF-295 CNS
[41] = system: NCI-H226 lung
[42] = system: RPMI-8226 leukemia
[43] = system: EKVX NSCLC
[44] = system: SF-268 CNS
[45] = system: HCT-15 colon
[46] = system: KM12 colon
[47] = system: MOLT-4 leukemia
[48] = system: MCF7 breast
[49] = system: UACC-257 melanoma
[50] = system: M14 melanoma
[51] = system: K-562 leukemia
[52] = system: T-47D breast
[53] = system: 786-0 renal
[54] = system: PC-3 prostate
[55] = system: SNB-19 CNS
[56] = system: TK-10 renal
[57] = system: IGROV1 ovarian
[58] = system: NCI-H460 lung
[59] = system: HCC-2998 colon

Structure (SMILES): Brc1ccc2c3c1[C@@H]1O[C@@H]1c1cccc(c1-3)[C@@H]1O[C@H]21
- TGI [1]: 66.5 µM
- TGI [2]: > 71.5 µM
- TGI [3]: 31.4 µM
- TGI [4]: 80.8 µM
- TGI [5]: > 72.5 µM
- TGI [6]: 30.8 µM
- TGI [7]: 41.6 µM
- TGI [8]: 45.4 µM
- TGI [9]: > 69.1 µM
- TGI [10]: 52.6 µM
- TGI [11]: 33.4 µM
- TGI [12]: 48.3 µM
- TGI [13]: 65.8 µM
- TGI [14]: 40.2 µM
- TGI [15]: > 92.1 µM
- TGI [16]: 43.5 µM
- TGI [17]: 52.2 µM
- TGI [18]: > 100 µM
- TGI [19]: 41.3 µM
- TGI [20]: 45.7 µM
- TGI [21]: 43.1 µM
- TGI [22]: 33.7 µM
- TGI [23]: 6.86 µM
- TGI [24]: 67.1 µM
- TGI [25]: 45.9 µM
- TGI [26]: 32.3 µM
- TGI [27]: 34.3 µM
- TGI [28]: 45.2 µM
- TGI [29]: > 100 µM
- TGI [30]: 43.2 µM
- TGI [31]: 46.9 µM
- TGI [32]: 16.5 µM
- TGI [33]: 53.5 µM
- TGI [34]: 35.4 µM
- TGI [35]: 50.3 µM
- TGI [36]: 43.8 µM
- TGI [37]: 53.3 µM
- TGI [38]: > 71.2 µM
- TGI [39]: 26.4 µM
- TGI [40]: 46 µM
- TGI [41]: > 100 µM
- TGI [42]: > 100 µM
- TGI [43]: 39.4 µM
- TGI [44]: 63.1 µM
- TGI [45]: 49.8 µM
- TGI [46]: 36 µM
- TGI [47]: > 100 µM
- TGI [48]: > 100 µM
- TGI [49]: 98.4 µM
- TGI [50]: 35.5 µM
- TGI [51]: > 100 µM
- TGI [52]: 45 µM
- TGI [53]: 51.1 µM
- TGI [54]: > 71.7 µM
- TGI [55]: 60.9 µM
- TGI [56]: > 100 µM

Structure (SMILES): c1ccc2c(c1)CCCN1CCc3ccccc3C21 (centres undefined)
- TGI [1]: > 100 µM
- TGI [57]: > 100 µM
- TGI [2]: > 100 µM
- TGI [3]: > 100 µM
- TGI [4]: > 100 µM
- TGI [5]: > 100 µM
- TGI [6]: > 100 µM
- TGI [7]: > 100 µM
- TGI [8]: > 100 µM
- TGI [9]: > 100 µM
- TGI [58]: > 100 µM
- TGI [10]: > 100 µM
- TGI [11]: 70.9 µM
- TGI [12]: 56.4 µM
- TGI [13]: > 100 µM
- TGI [14]: > 100 µM
- TGI [15]: > 100 µM
- TGI [16]: > 100 µM
- TGI [17]: > 100 µM
- TGI [18]: > 100 µM
- TGI [19]: > 100 µM
- TGI [59]: > 100 µM
- TGI [20]: > 100 µM
- TGI [21]: > 100 µM
- TGI [22]: > 100 µM
- TGI [23]: > 100 µM
- TGI [24]: > 100 µM
- TGI [25]: > 100 µM
- TGI [27]: > 100 µM
- TGI [28]: > 100 µM
- TGI [29]: > 100 µM
- TGI [30]: > 100 µM
- TGI [31]: > 100 µM
- TGI [32]: 46.5 µM
- TGI [33]: 70.4 µM
- TGI [34]: > 100 µM
- TGI [35]: > 100 µM
- TGI [36]: > 100 µM
- TGI [37]: > 100 µM
- TGI [38]: > 100 µM
- TGI [39]: > 100 µM
- TGI [40]: > 100 µM
- TGI [41]: > 100 µM
- TGI [42]: > 100 µM
- TGI [43]: > 100 µM
- TGI [44]: > 100 µM
- TGI [45]: > 100 µM
- TGI [46]: > 100 µM
- TGI [47]: > 100 µM
- TGI [48]: > 100 µM
- TGI [49]: > 100 µM
- TGI [50]: > 100 µM
- TGI [51]: > 100 µM
- TGI [52]: > 100 µM
- TGI [53]: > 100 µM
- TGI [54]: > 100 µM
- TGI [55]: > 100 µM
- TGI [56]: > 100 µM
